Laboratory results as given in patent US20260027099A1, “OPHTHALMIC COMPOSITIONS COMPRISING BILASTINE, A BETA-CYCLODEXTRIN AND AT LEAST ONE GELLING AGENT” (FAES FARMA, S.A., priority 2018, published 2026).
Like-named read-outs stand apart in the source and are kept apart here.

How the values were obtained:
[1] = tested on: histamine-induced conjunctival vascular permeability; conditions: topical drug administered 2 to 8 hours before subconjunctival histamine challenge; Evans blue dye i.v.; cited from earlier work
[2] = Ocular in vivo biodistribution, bilastine tissue concentration by LC-MS/MS; parameters: species or system Dutch Belted rabbits; conditions: Dutch Belted, topical, 24 hours post-administration, rabbit, 30 μL of 0.6% w/v formulation in each eye, single occasion
Experimental: The aqueous ophthalmic formulations of bilastine were prepared at a bilastine concentration of 0.6% w/v. The excipients were as indicated above in Table 1, i.e., also comprised HPB 90 mg/mL, methylcellulose 0.1 mg/mL, sodium hyaluronate 1 mg/mL and glycerin 16.1 mg/mL.
42, 4-5 month-old Dutch Belted rabbits were selected as test subjects. The weight of the animals at treatment start was from 1.6 to 2.1 kg.
Animals received 30 μL of the ophthalmic formulation in each eye on a single occasion. The ophthalmic formulation was placed directly on both eyes of each animal by means of an automatic pipette. A new pipette tip was used for each eye.
The eyes of the test animals were not washed after instillation. Animals were weighed before administration and observed after administration to record any possible clinical sign.
Two to three animals were sacrificed at each time point (0.5, 1, 2, 4, 6, 8, 12 and 24 hours) and the following tissues from both eyes were collected: Aqueous humor, vitreous humor, cornea, conjunctiva, iris/ciliary body, crystalline lens and retina/choroid. Directly after sampling, all solid matrices were weighed (4 decimal precision) to determine the amount of each tissue collected.
Bilastine concentration was determined by LC-MS/MS.
Bilastine analyses were performed according to analytical methods: • PKH/MOA/1022 for rabbit plasma, • PKH/MOA/1042 for rabbit aqueous humor, • PKH/MOA/1043 for rabbit vitreous humor, • PKH/MOA/1028 for rabbit cornea homogenate, • PKH/MOA/1041 for rabbit iris/ciliary body homogenate, • PKH/MOA/1036 for rabbit conjunctiva homogenate, • PKH/MOA/1032 for rabbit crystalline lens homogenate, • PKH/MOA/1029 for rabbit retina/choroid homogenate, which were previously developed and validated at Eurofins|ADME BIOANALYSES according to the Guidance for Industry—Bioanalytical Method Validation—FDA May 2018 and EMA Guideline—EMEA/CHMP/EWP/192217/2009—21 Jul. 2011, in the studies 18-014A to 18-014H.
The analytical methods involved protein precipitation for plasma and involved dilution for other matrices followed by LC-MS/MS analysis using F21201RR (Bilastine-d6) as internal standard.

In the case of CCOCCn1c(C2CCN(CCc3ccc(C(C)(C)C(=O)O)cc3)CC2)nc2ccccc21 [bilastine, 2-[4-(2-{4-[1-(2-Ethoxyethyl)-1H-benzimidazol-2-yl]-1-piperidinyl}ethyl)phenyl]-2-methylpropanoic acid], the “ED50 (in vivo anti-histaminic activity)” value [1] is given as 50% efficacy was not achieved, the concentration at 24 h ([2]; conjunctiva, read-out: bilastine concentration in conjunctiva (mean value)) is given as 388 ng/g and the concentration at 24 h ([2]; cornea, read-out: bilastine concentration in cornea (mean value)) is given as 28.7 ng/g. For the same molecule, the concentration at 24 h ([2]; crystalline lens, read-out: bilastine concentration in crystalline lens) was 0.12 ng/g, the concentration at 24 h ([2]; iris/ciliary body, read-out: bilastine concentration in iris/ciliary body) was 12.4 ng/g and the concentration at 24 h ([2]; retina/choroid, read-out: bilastine concentration in retina/choroid) was 1.91 ng/g.
